Data from ChEMBL document CHEMBL2429783, “Discovery of epigenetic regulator I-BET762: lead optimization to afford a clinical candidate inhibitor of the BET bromodomains” (J Med Chem, 2013).
Converted amounts (≈) assume the structure as drawn.

What was measured:
[1] = biological target: Bromodomain-containing protein 3 (Homo sapiens, UniProt Q15059)
Description: Binding affinity to His6-tagged BRD3 (unknown origin) after 60 mins by fluorescence anisotropy binding Assay

[2] = biological target: Bromodomain-containing protein 2 (Homo sapiens, UniProt P25440)
Description: Binding affinity to His6-tagged BRD2 (unknown origin) after 60 mins by fluorescence anisotropy binding Assay

[3] = Half life in buffer at pH 2 by HPLC analysis; type: physicochemical
PBMC = assay: cells; details: Homo sapiens, read-out: pIC50 (converted)
Description: Antiinflammatory activity against human PBMC cells assessed as LPS-induced IL-6 production by chemiluminescence assay

physchem = details: FaSSIF, pH 6.5
Description: Solubility of the compound in FaSSIF at pH 6.5 after 16 hrs by HPLC analysis

HepG2 = assay: Upregulation of human apoA1 level in human HepG2 cells after 16 to 20 hrs by luciferase reporter gene assay; type: functional
[4] = Fraction unbound in human blood at 1000 ng/ml by equilibrium dialysis method; type: ADME, tissue-based
[5] = Terminal half life in Balb/c mouse at 1 mg/kg, iv after 1 hr; type: ADME, organism-based; parameters: dose 1 mg/kg, route intravenous; details: in vivo, read-out: beta t1/2 (converted)
Salmonella typhimurium [6] = assay: Genotoxicity in Salmonella typhimurium TA98 by Ames test; type: toxicity, organism-based; details: salmonella enterica subsp. enterica serovar typhimurium
Salmonella typhimurium [7] = assay: Genotoxicity in Salmonella typhimurium TA1537 by Ames test in presence of rat S9 mix; type: toxicity, organism-based; details: salmonella enterica subsp. enterica serovar typhimurium
[8] = Fraction unbound in rat blood at 1000 ng/ml by equilibrium dialysis mehod; type: ADME, tissue-based
Salmonella typhimurium [9] = assay: Genotoxicity in Salmonella typhimurium TA1535 by Ames test; type: toxicity, organism-based; details: salmonella enterica subsp. enterica serovar typhimurium
Liver microsomes [10] = details: human, 0.5 h
Description: Clearance in human liver microsomes after 30 mins by LC/MS/MS analysis

[11] = Oral bioavailability in CD rat at 3 mg/kg after 1 hr; type: ADME, organism-based; details: in vivo
Salmonella typhimurium [12] = assay: Genotoxicity in Salmonella typhimurium TA98 by Ames test in presence of rat S9 mix; type: toxicity, organism-based; details: salmonella enterica subsp. enterica serovar typhimurium
[13] = AUC (0 to infinity) in beagle dog at 1 mg/kg, iv and 3 mg/kg, po after 1 hr; type: ADME, organism-based, Canis lupus familiaris; details: plasma
in vivo [14] = details: CD, rat, iv, 1 mg/kg
[15] = Volume of distribution in Balb/c mouse at 1 mg/kg, iv and 3 mg/kg, po after 1 hr; type: ADME, organism-based; details: in vivo
Salmonella typhimurium [16] = assay: Genotoxicity in Salmonella typhimurium TA1535 by Ames test in presence of rat S9 mix; type: toxicity, organism-based; details: salmonella enterica subsp. enterica serovar typhimurium
[17] = Volume of distribution in CD rat at 1 mg/kg, iv and 3 mg/kg, po after 1 hr; type: ADME, organism-based; details: in vivo
in vivo [18] = details: cynomolgus monkey, iv, 2 mg/kg
[19] = Terminal half life in beagle dog at 1 mg/kg, iv after 1 hr; type: ADME, organism-based, Canis lupus familiaris; parameters: dose 1 mg/kg, route intravenous; details: in vivo, read-out: beta t1/2 (converted)
Hepatocyte [20] = details: mouse, hepatocytes, 2 h
Description: Clearance in mouse hepatocytes after 120 mins by LC/MS/MS analysis

in vivo [21] = details: beagle, dog, iv, 1 mg/kg
[22] = Oral bioavailability in Balb/c mouse at 3 mg/kg after 1 hr; type: ADME, organism-based; details: in vivo
[23] = AUC (0 to infinity) in cynomolgus monkey at 2 mg/kg, iv and 5 mg/kg, po after 1 hr; type: ADME, organism-based, Macaca fascicularis; details: plasma
Liver [24] = details: mouse, microsomes, 0.5 h
Description: Clearance in mouse liver microsomes after 30 mins by LC/MS/MS analysis

Salmonella typhimurium [25] = assay: Genotoxicity in Salmonella typhimurium TA1537 by Ames test; type: toxicity, organism-based; details: salmonella enterica subsp. enterica serovar typhimurium
Hepatocyte [26] = details: rat, hepatocytes, 2 h
Description: Clearance in rat hepatocytes after 120 mins by LC/MS/MS analysis

[27] = Terminal half life in CD rat at 1 mg/kg, iv after 1 hr; type: ADME, organism-based; parameters: dose 1 mg/kg, route intravenous; details: in vivo, read-out: beta t1/2 (converted)
Salmonella typhimurium [28] = assay: Genotoxicity in Salmonella typhimurium TA100 by Ames test in presence of rat S9 mix; type: toxicity, organism-based; details: salmonella enterica subsp. enterica serovar typhimurium
[29] = Oral bioavailability in cynomolgus monkey at 5 mg/kg after 1 hr; type: ADME, organism-based, Macaca fascicularis; details: in vivo
Rattus norvegicus = assay: Antiinflammatory activity against po dosed Sprague-Dawley rat immunoinflammatory model assessed as inhibition of KLH-induced ear swelling administered qd for 7 days measured 24 hrs post KLH challenge relative to control; type: functional, organism-based
Salmonella typhimurium [30] = assay: Genotoxicity in Salmonella typhimurium TA100 by Ames test; type: toxicity, organism-based; details: salmonella enterica subsp. enterica serovar typhimurium
Liver [31] = details: dog, microsomes, 0.5 h
Description: Clearance in dog liver microsomes after 30 mins by LC/MS/MS analysis

[32] = cynomolgus monkey, microsomes, 0.5 h
Description: Clearance in cynomolgus monkey liver microsomes after 30 mins by LC/MS/MS analysis

Hepatocyte [33] = details: human, hepatocytes, 2 h
Description: Clearance in human hepatocytes after 120 mins by LC/MS/MS analysis

[34] = cynomolgus monkey, hepatocytes, 2 h
Description: Clearance in cynomolgus monkey hepatocytes after 120 mins by LC/MS/MS analysis

[35] = Volume of distribution in beagle dog at 1 mg/kg, iv and 3 mg/kg, po after 1 hr; type: ADME, organism-based, Canis lupus familiaris; details: in vivo
[36] = AUC (0 to infinity) in CD rat at 1 mg/kg, iv and 3 mg/kg, po after 1 hr; type: ADME, organism-based; details: plasma
Liver microsomes [37] = details: rat, 0.5 h
Description: Clearance in rat liver microsomes after 30 mins by LC/MS/MS analysis

[38] = Fraction unbound in mouse blood at 1000 ng/ml by equilibrium dialysis method; type: ADME, tissue-based
[39] = Fraction unbound in dog blood at 1000 ng/ml by equilibrium dialysis method; type: ADME, tissue-based, Canis lupus familiaris
[40] = Oral bioavailability in beagle dog at 3 mg/kg after 1 hr; type: ADME, organism-based, Canis lupus familiaris; details: in vivo
[41] = dog, hepatocytes, 2 h
Description: Clearance in dog hepatocytes after 120 mins by LC/MS/MS analysis

[42] = Terminal half life in cynomolgus monkey at 2 mg/kg, iv after 1 hr; type: ADME, organism-based, Macaca fascicularis; parameters: dose 2 mg/kg, route intravenous; details: in vivo, read-out: beta t1/2 (converted)
in vivo [43] = details: Balb/c, mouse, iv, 1 mg/kg
[44] = Volume of distribution in cynomolgus monkey at 2 mg/kg, iv and 5 mg/kg, po after 1 hr; type: ADME, organism-based, Macaca fascicularis; details: in vivo
[45] = AUC (0 to infinity) in Balb/c mouse at 1 mg/kg, iv and 3 mg/kg, po after 1 hr; type: ADME, organism-based; details: plasma

Sequence of Bromodomain-containing protein 2 (P25440 whole entry): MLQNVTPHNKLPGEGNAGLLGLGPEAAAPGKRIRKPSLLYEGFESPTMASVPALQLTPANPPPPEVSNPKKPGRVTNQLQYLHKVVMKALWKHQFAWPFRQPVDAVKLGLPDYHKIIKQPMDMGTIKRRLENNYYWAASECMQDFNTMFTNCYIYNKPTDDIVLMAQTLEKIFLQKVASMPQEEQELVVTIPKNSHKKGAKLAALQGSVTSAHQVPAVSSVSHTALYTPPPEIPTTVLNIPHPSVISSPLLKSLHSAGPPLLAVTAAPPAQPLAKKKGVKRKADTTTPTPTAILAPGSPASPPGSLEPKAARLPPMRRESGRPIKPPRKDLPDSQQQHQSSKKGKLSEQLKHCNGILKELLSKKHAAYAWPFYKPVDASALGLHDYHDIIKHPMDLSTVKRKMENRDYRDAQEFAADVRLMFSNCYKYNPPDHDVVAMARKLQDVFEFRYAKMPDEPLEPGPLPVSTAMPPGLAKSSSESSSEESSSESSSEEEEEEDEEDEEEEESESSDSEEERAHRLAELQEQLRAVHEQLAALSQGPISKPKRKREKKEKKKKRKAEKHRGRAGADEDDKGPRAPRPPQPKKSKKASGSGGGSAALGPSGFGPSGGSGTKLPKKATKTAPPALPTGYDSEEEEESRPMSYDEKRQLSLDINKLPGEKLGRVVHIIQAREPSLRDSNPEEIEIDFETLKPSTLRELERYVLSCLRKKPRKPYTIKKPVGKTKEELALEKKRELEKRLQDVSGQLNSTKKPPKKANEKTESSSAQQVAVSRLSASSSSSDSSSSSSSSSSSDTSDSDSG
Sequence of Bromodomain-containing protein 3 (Q15059 whole entry): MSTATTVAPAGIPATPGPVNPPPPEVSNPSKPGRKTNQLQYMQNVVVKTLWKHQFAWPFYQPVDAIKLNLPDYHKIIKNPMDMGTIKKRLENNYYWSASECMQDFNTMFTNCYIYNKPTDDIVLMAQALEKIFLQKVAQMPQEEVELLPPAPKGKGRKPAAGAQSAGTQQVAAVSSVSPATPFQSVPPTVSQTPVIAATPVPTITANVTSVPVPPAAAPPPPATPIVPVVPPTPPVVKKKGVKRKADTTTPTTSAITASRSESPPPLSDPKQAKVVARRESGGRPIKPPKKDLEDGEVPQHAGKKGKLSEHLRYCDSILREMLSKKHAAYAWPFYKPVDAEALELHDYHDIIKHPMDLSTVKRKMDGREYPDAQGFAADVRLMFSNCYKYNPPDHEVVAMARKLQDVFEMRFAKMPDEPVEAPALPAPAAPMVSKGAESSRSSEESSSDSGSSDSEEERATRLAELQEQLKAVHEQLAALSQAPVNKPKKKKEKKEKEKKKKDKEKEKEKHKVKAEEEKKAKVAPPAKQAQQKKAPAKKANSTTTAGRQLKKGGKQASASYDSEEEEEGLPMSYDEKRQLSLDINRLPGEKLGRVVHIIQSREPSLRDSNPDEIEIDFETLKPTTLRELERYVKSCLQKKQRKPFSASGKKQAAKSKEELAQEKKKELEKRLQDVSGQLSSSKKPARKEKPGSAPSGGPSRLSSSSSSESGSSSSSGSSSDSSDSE

Cc1ccc(C2=NC(NC(=O)OCc3ccccc3)c3nnc(C)n3-c3ccccc32)cc1 (centres undefined)
IC50 [1]: 1000 nM
IC50 [2]: 1580 nM

CCOC(=O)NC1N=C(c2ccccc2)c2ccccc2-n2c(C)nnc21 (centres undefined)
half-life [3]: 33.6 min

Cc1nnc2n1-c1ccccc1C(c1ccccc1)=NC2NC(=O)NCc1ccccc1 (centres undefined)
IC50 (PBMC): 398 nM
IC50 [1]: 794 nM
IC50 [2]: 2000 nM

CCNC(=O)C[C@@H]1N=C(c2ccc(Cl)cc2)c2ccc(OC)cc2-n2c(C)nnc21
IC50 (PBMC): 631 nM

COc1ccc(C2=NC(NC(=O)OCc3ccccc3)c3nnc(C)n3-c3ccccc32)cc1 (centres undefined)
IC50 (PBMC): 316 nM
IC50 [1]: 1000 nM
IC50 [2]: 2000 nM

COc1ccc2c(c1)C(c1ccc(Cl)cc1)=N[C@@H](CC(=O)Nc1ccc(F)cc1)c1nnc(C)n1-2
IC50 (PBMC): 2000 nM
solubility at 16 h (physchem): 105 µg/mL (≈ 214 µM)

COc1ccccc1C1=NC(NC(=O)OCc2ccccc2)c2nnc(C)n2-c2ccccc21 (centres undefined)
IC50 (PBMC): 10000 nM
IC50 [2]: 10000 nM

CCOC(=O)N[C@@H]1N=C(c2ccccc2)c2ccccc2-n2c(C)nnc21
IC50 (PBMC): 200 nM
half-life [3]: 13.8 min

CCOC(=O)NC1N=C(c2ccc(Cl)cc2)c2ccccc2-n2c(C)nnc21 (centres undefined)
IC50 [1]: 1260 nM
half-life [3]: 45 min
IC50 [2]: 2510 nM

Cc1nnc2n1-c1ccccc1C(c1ccccc1)=NC2NC(=O)OCc1ccccc1 (centres undefined)
IC50 (PBMC): 158 nM
EC170 (HepG2): 0.22 µM
half-life [3]: 34.8 min

Cc1nnc2n1-c1ccccc1C(c1ccccc1)=NC2NC(=O)Oc1cccc(F)c1 (centres undefined)
IC50 [1]: 1260 nM
IC50 [2]: 3160 nM

COc1ccc2c(c1)C(c1ccc(Cl)cc1)=N[C@@H](CC(=O)NCC1CC1)c1nnc(C)n1-2
solubility at 16 h (physchem): 111 µg/mL (≈ 247 µM)

CCCCOC(=O)C[C@@H]1N=C(c2ccc(Cl)cc2)c2cc(OC)ccc2-n2c(C)nnc21
solubility at 16 h (physchem): 104 µg/mL (≈ 230 µM)

COc1ccc2c(c1)C(c1ccc(Cl)cc1)=N[C@@H](CC(=O)Nc1cccnc1)c1nnc(C)n1-2
solubility at 16 h (physchem): 95 µg/mL (≈ 201 µM)

COC(=O)C[C@@H]1N=C(c2ccc(Cl)cc2)c2cc(OC)ccc2-n2c(C)nnc21
IC50 (PBMC): 126 nM
solubility at 16 h (physchem): 115 µg/mL (≈ 280 µM)

Cc1nnc2n1-c1ccccc1C(c1ccccc1)=NC2CC(=O)NCc1ccccc1 (centres undefined)
IC50 (PBMC): 5010 nM
IC50 [1]: 2000 nM
half-life [3]: > 120 min
IC50 [2]: 2510 nM
solubility at 16 h (physchem): 1 µg/mL (≈ 2.37 µM)

COc1ccc2c(c1)C(c1ccc(Cl)cc1)=N[C@@H](CC(=O)O)c1nnc(C)n1-2
IC50 (PBMC): > 100000 nM
solubility at 16 h (physchem): 113 µg/mL (≈ 285 µM)

CCNC(=O)C[C@@H]1N=C(c2ccc(Cl)cc2)c2cc(OC)ccc2-n2c(C)nnc21 [MOLIBRESIB]
fraction unbound at 1000 ng/ml [4]: 0.19
half-life [5]: 90 min
Activity (Salmonella typhimurium [6]): Non-toxic
Activity (Salmonella typhimurium [7]): Non-toxic
fraction unbound at 1000 ng/ml [8]: 0.18
Activity (Salmonella typhimurium [9]): Non-toxic
CLH (Liver microsomes [10]): < 0.53 mL/min/g
bioavailability [11]: 27%
Activity (Salmonella typhimurium [12]): Non-toxic
AUC(0-inf) [13]: 4740 ng·h/mL
clearance at 1 h (in vivo [14]): 63 mL/min/kg
Vd [15]: 6.5 L/kg
Activity (Salmonella typhimurium [16]): Non-toxic
Vd [17]: 1.8 L/kg
clearance at 1 h (in vivo [18]): 14 mL/min/kg
half-life [19]: 354 min
CLH (Hepatocyte [20]): < 0.86 mL/min/g
clearance at 1 h (in vivo [21]): 5 mL/min/kg
bioavailability [22]: 61%
AUC(0-inf) [23]: 3340 ng·h/mL
IC50 (PBMC): 316 nM
CLH (Liver [24]): < 0.53 mL/min/g
Activity (Salmonella typhimurium [25]): Non-toxic
CLH (Hepatocyte [26]): < 0.86 mL/min/g
half-life [27]: 30 min
Activity (Salmonella typhimurium [28]): Non-toxic
bioavailability [29]: 52%
Activity (Rattus norvegicus): Dose-dependent effect
Activity (Salmonella typhimurium [30]): Non-toxic
CLH (Liver [31]): 0.69 mL/min/g
CLH [32]: 0.2 mL/min/g
CLH (Hepatocyte [33]): < 0.86 mL/min/g
CLH [34]: < 0.085 mL/min/g
Vd [35]: 1.8 L/kg
AUC(0-inf) [36]: 201 ng·h/mL
CLH (Liver microsomes [37]): 1.45 mL/min/g
fraction unbound at 1000 ng/ml [38]: 0.21
fraction unbound at 1000 ng/ml [39]: 0.24
bioavailability [40]: 44%
CLH [41]: < 1.7 mL/min/g
half-life [42]: 90 min
clearance at 1 h (in vivo [43]): 75 mL/min/kg
Vd [44]: 1.5 L/kg
AUC(0-inf) [45]: 468 ng·h/mL

Cc1nnc2n1-c1ccc(Cl)cc1C(c1ccccc1)=NC2NC(=O)OCc1ccccc1 (centres undefined)
IC50 (PBMC): 631 nM
IC50 [1]: 1580 nM
IC50 [2]: 3160 nM

Cc1nnc2n1-c1ccccc1C(c1ccccc1)=NC2NC(=O)OCc1ccc(F)cc1 (centres undefined)
IC50 (PBMC): 316 nM
IC50 [1]: 1000 nM
half-life [3]: 19.8 min
IC50 [2]: 2000 nM

Cc1nnc2n1-c1ccccc1C(c1ccccc1)=NC2NS(=O)(=O)Cc1ccccc1 (centres undefined)
IC50 (PBMC): 15800 nM
IC50 [2]: 31600 nM

COc1cccc(C2=NC(NC(=O)OCc3ccccc3)c3nnc(C)n3-c3ccccc32)c1 (centres undefined)
IC50 (PBMC): 501 nM
IC50 [2]: 3160 nM

CCNC(=O)C[C@@H]1N=C(c2cccc(F)c2)c2cc(OC)ccc2-n2c(C)nnc21
solubility at 16 h (physchem): 116 µg/mL (≈ 285 µM)

Cc1ccc2c(c1)-n1c(C)nnc1C(NC(=O)OCc1ccccc1)N=C2c1ccccc1 (centres undefined)
IC50 (PBMC): 631 nM
IC50 [1]: 1260 nM
IC50 [2]: 2510 nM

COc1ccc2c(c1)C(c1ccc(Cl)cc1)=N[C@@H](CC(=O)Nc1ccccn1)c1nnc(C)n1-2
IC50 (PBMC): 316 nM
solubility at 16 h (physchem): 115 µg/mL (≈ 243 µM)

Cc1nnc2n1-c1ccc([N+](=O)[O-])cc1C(c1ccccc1)=NC2NC(=O)OCc1ccccc1 (centres undefined)
IC50 (PBMC): 2000 nM
IC50 [2]: 12600 nM

COc1ccc2c(c1)C(c1ccccc1)=NC(NC(=O)OCc1ccccc1)c1nnc(C)n1-2 (centres undefined)
IC50 (PBMC): 126 nM
IC50 [1]: 794 nM
IC50 [2]: 794 nM

Cc1nnc2n1-c1ccccc1C(c1ccccc1)=NC2NC(=O)CCc1ccccc1 (centres undefined)
IC50 [1]: 3160 nM
IC50 [2]: 15800 nM
